Tests used:
[1] = plasma protein binding of cobimetinib; assay type: in vitro ADME; conditions: concentration-independent
[2] = Phase 1a/b study NCT03284502: pharmacokinetic analysis; assay type: in vivo, human; conditions: steady-state, dose normalized
[3] = tested on: SK-MEL-30 human melanoma cell line harboring NRAS^Q61K mutation; conditions: mouse, in vivo, po
Experimental: (§1) Tumor volume in mm^3 and body weight change were measured at days 1, 4, 9 and 15.
(§2) Maximum inhibition rate (max inhib (%)) was determined by (1−(mean relative tumor weight in treated group/mean relative tumor weight control group))*100.

[4] = clinical pharmacokinetics of cobimetinib; conditions: for half-life: oral administration
[5] = tested on: SK-MEL-30 human melanoma cell line harboring NRAS^Q61K mutation; test: SK-MEL-30 xenograft, belvarafenib and cobimetinib (Example 7); conditions: 10 mg/kg QD orally, 14 days
Experimental: as §1, §2

[6] = tested on: Calu-6 NSCLC cell line harboring KRAS^Q61K mutation; test: Calu-6 xenograft, belvarafenib and selumetinib (Example 10); assay type: in vivo, mice; conditions: 17 days
[7] = tested on: SK-MEL-30 melanoma cell line harboring NRAS^Q61K mutation; test: SK-MEL-30 xenograft, belvarafenib and binimetinib (Example 9); assay type: in vivo, mice; conditions: 21 days
melanoma = conditions: patients who have previously undergone anti-PD-1 treatment; cited from earlier work
advanced melanoma = conditions: cited from earlier work
[8] = atezolizumab Study PCD4989g; assay type: in vivo, human; conditions: single agent
Experimental: The pharmacokinetics of atezolizumab administered as a single agent have been characterized based on clinical data from study PCD4989g and are consistent with a currently ongoing Phase III Study WO29522 in first line treatment of TNBC. Atezolizumab anti-tumor activity has been observed across doses from 1 to 20 mg/kg. […] Atezolizumab dosing schedules of q3w and q2w have been tested. A fixed dose of atezolizumab 800 mg every two weeks (q2w) (equivalent to a body weight-based dose of 10 mg/kg q2w) results in equivalent exposure to the Phase III dose of 1200 mg administered every three weeks (q3w). The q3w schedule is being used in multiple Phase III studies of atezolizumab monotherapy across multiple tumor types and the q2w predominantly used in combination with chemotherapy regimens.

O=C(c1ccc(F)c(F)c1Nc1ccc(I)cc1F)N1CC(O)([C@@H]2CCCCN2)C1 [Cobimetinib, (S)-[3,4-Difluoro-2-(2-fluoro-4-iodophenylamino)phenyl][3-hydroxy-3-(piperidin-2-yl)azetidin-1-yl]methanone]
binding to plasma proteins [1]: 95% | drug-drug interaction with belvarafenib impacting cobimetinib exposure [2]: no apparent drug-drug interaction | tolerability [3]: well tolerated without body weight loss | pharmacokinetics in the fed state compared with the fasted state ([4]; healthy subjects): not altered | bioavailability ([4]; human, in vivo, oral): 45.9% | Tmax ([4]; human, in vivo, po): 1 to 3 h | half-life ([4]; human, in vivo, po, mean terminal half-life (t½)): 48.8 h | half-life ([4]; human, in vivo, po, terminal half-life (t½), range): 23.1 to 80 h | effect of the proton pump inhibitor rabeprazole on cobimetinib pharmacokinetics ([4]; presence or absence of a high-fat meal): minimal effect | Day for max inhib [5]: Day 15 | Max inhib. Rate (%) [5]: 54.3%

Cn1cnc2c(F)c(Nc3ccc(Br)cc3Cl)c(C(=O)NOCCO)cc21 [Selumetinib, reference compound]
Day for max inhib ([6]; 5 mg/kg BID orally): Day 18 | Max inhib. Rate (%) ([6]; 5 mg/kg BID orally): 59.0% | Max weight loss (%) ([6]; 5 mg/kg BID orally): 1.5% | tolerability ([6]; single agent): well tolerated with or without minimal body weight loss

Cn1cnc2c(F)c(Nc3ccc(Br)cc3F)c(C(=O)NOCCO)cc21 [Binimetinib]
Day for max inhib ([7]; 10 mg/kg QD orally): Day 21 | Max inhib. Rate (%) ([7]; 10 mg/kg QD orally): 13.6% | Max weight loss (%) ([7]; 10 mg/kg QD orally): 0.8% | Day for max inhib ([7]; 30 mg/kg QD orally): Day 21 | Max inhib. Rate (%) ([7]; 30 mg/kg QD orally): 27.1% | tolerability ([7]; single agent, 10 and 30 mg/kg q.d.): well tolerated without marked body weight loss

ipilimumab: anti-CTLA4 immunotherapy agent
response rate (melanoma): approximately 15%

nivolumab: anti-PD-1 immunotherapy agent, monotherapy arm of a Phase III trial
median OS (advanced melanoma; 5 years minimum follow-up): 36.9 months | PFS (advanced melanoma; Phase III trial of 1296 patients): 6.9 months

Atezolizumab: humanized IgG1 monoclonal antibody that targets PD-L1
Kaplan-Meier estimated overall 24-week progression-free survival (PFS) rate [8]: 33%
